Source: patent publication US10052320B2, “Substituted quinoxalines as FGFR kinase inhibitors” (ASTEX THERAPEUTICS LIMITED, priority 2011, dated 2018)
Read-outs that look alike come from different tables or passages of the source.

What was measured:
FGFR1 (h) = FGFR1 (h) (Homo sapiens, UniProt P11362); experiment: FGFR1 (enzymatic assay), TR-FRET; format: biochemical; settings: read-out: FGFR 1 pIC50 (converted)
Method: (§1) In a final reaction volume of 30 μL, FGFR1 (h) (25 ng/ml) was incubated with 50 mM HEPES pH 7.5, 6 mM MnCl2, 1 mM DTT, 0.1 mM Na3VO4, 0.01% Triton-X-100, 500 nM Btn-Flt3 and 5 μM ATP in the presence of compound (1% DMSO final). […] Time-Resolved Fluorescence Resonance Energy Transfer (TR-FRET) signal (ex340 nm. Em 620 nm, em 655 nm) was measured afterwards and results are expressed in RFU (Relative Fluorescence Units).

FGFR2 (h) = FGFR2 (h) (Homo sapiens, UniProt P21802); experiment: FGFR2 (enzymatic assay), TR-FRET; format: biochemical; settings: read-out: FGFR 2 pIC50 (converted)
FGFR2 (h), sequence (P21802 22-821): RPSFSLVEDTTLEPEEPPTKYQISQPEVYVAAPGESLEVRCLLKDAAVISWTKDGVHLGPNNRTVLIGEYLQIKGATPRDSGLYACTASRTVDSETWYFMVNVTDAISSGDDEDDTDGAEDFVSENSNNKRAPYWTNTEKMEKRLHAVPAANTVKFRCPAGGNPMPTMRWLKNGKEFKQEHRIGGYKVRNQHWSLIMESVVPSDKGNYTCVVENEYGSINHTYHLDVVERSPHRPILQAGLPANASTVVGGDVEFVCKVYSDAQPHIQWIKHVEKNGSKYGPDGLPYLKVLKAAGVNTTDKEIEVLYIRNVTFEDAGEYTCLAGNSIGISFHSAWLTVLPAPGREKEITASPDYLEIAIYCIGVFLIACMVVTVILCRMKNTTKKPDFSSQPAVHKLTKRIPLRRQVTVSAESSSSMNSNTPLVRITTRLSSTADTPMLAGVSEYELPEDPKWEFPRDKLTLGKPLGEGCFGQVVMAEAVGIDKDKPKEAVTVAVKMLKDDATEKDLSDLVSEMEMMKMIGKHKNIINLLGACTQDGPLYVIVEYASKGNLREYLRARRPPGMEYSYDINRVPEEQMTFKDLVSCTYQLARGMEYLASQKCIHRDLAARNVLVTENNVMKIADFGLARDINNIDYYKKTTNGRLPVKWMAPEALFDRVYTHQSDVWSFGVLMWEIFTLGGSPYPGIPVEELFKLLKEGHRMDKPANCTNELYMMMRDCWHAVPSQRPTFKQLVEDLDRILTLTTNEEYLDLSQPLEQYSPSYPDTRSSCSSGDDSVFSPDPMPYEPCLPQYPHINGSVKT
Method: as §1, with “μL, FGFR2” for “μL, FGFR1”, “(h) (150” for “(h) (25”, “and 0.4” for “and 5”, “in” for “in RFU”

FGFR3 (h) = FGFR3 (h) (Homo sapiens, UniProt P22607); experiment: FGFR3 (enzymatic assay), TR-FRET; format: biochemical; settings: read-out: FGFR 3 pIC50 (converted)
FGFR3 (h), sequence (P22607 23-806): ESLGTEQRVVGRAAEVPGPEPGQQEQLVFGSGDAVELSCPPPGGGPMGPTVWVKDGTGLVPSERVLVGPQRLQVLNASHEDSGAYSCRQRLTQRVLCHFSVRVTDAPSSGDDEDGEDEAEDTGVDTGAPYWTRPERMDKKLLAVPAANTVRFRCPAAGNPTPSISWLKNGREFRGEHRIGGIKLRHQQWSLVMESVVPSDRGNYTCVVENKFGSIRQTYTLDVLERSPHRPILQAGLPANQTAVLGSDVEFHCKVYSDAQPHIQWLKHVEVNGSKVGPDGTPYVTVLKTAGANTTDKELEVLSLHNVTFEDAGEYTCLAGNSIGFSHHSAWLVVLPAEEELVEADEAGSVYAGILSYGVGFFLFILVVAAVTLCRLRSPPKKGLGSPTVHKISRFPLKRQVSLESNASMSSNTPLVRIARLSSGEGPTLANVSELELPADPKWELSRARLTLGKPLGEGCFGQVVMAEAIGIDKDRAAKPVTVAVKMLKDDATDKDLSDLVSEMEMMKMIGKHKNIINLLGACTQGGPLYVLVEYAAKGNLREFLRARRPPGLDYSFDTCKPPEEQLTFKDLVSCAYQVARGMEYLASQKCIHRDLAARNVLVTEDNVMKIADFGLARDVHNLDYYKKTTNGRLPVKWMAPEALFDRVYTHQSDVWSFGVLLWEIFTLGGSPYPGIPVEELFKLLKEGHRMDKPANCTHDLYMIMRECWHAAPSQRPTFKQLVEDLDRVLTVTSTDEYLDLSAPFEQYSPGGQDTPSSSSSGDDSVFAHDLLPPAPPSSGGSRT
Method: as §1, with “μL, FGFR3” for “μL, FGFR1”, “(h) (40” for “(h) (25”, “and 25” for “and 5”

[1] = system: Ba/F3-FGFR3-transfected cells in the presence of 10 ng/ml murine IL3; experiment: Ba/F3-FGFR3 (plus IL3) cellular proliferation counterscreen, Alamar Blue; format: cell-based; settings: for IC50: Mus musculus
Method: Ba/F3-FGFR3 (Minus IL3 or Plus IL3) (Cellular Proliferation Assay)
(§2) In a 384 well plate, 100 nl of compound dilution in DMSO was sprayed before adding 50 μl cell culture medium (phenol red free RPMI-1640, 10% FBS, 2 mM L-Glutamine and 50 μg/ml Gentamycin) containing 20000 cells per well of Ba/F3-FGFR3-transfected cells. Cells were put in an incubator at 37° C. and 5% CO2. After 24 hours, 10 μl of Alamar Blue solution (0.5 mM K3Fe(CN)6, 0.5 mM KaFe(CN)6, 0.15 mM Resazurin and 100 mM Phosphate Buffer) was added to the wells, incubated for 4 hours at 37° C. and 5% CO2 before RFU's (Relative Fluorescence Units) (ex. 540 nm., em. 590 nm.) were measured in a flurorescence plate reader.
(§3) As a counterscreen the same experiment was performed in the presence of 10 ng/ml murine IL3.
as §2, with “a 96” for “a 384”, “plate, 180” for “plate, 100 nl of compound dilution in DMSO was sprayed before adding 50”, “containing 10000” for “containing 20000”, “Ba/F3-FGFR3-transfected cells were pipette and 20 μl of compound dilution in DMSO was added.” for “Ba/F3-FGFR3-transfected cells.”, “hours, 40” for “hours, 10”

[2] = system: Ba/F3-KDR-transfected cells in the presence of 10 ng/ml murine IL3; experiment: Ba/F3-KDR (plus IL3) cellular proliferation counterscreen, Alamar Blue; format: cell-based; settings: plus 10 ng/ml murine IL3; for IC50: Mus musculus, read-out: BAF3-KDR (PLUS IL3) 384 well pIC50 (converted)
Method: Ba/F3-KDR (Minus IL3 or Plus IL3) (Cellular Proliferation Assay)
[…] Cells were put in an incubator at 37° C. and 5% CO2. After 24 hours, 10 μl of Alamar Blue solution (0.5 mM K3Fe(CN)6, 0.5 mM KaFe(CN)6, 0.15 mM Resazurin and 100 mM Phosphate Buffer) was added to the wells, incubated for 4 hours at 37° C. and 5% CO2 before RFU's (Relative Fluorescence Units) (ex. 540 nm., em. 590 nm.) were measured in a flurorescence plate reader.
as §3
as §2, with “a 96” for “a 384”, “plate, 180” for “plate, 100 nl of compound dilution in DMSO was sprayed before adding 50”, “containing 10000” for “containing 20000”, “of Ba/F3-KDR-transfected cells were pipette and 20 μl of compound dilution in DMSO was added.” for “of Ba/F3-FGFR3-transfected cells.”, “hours, 40” for “hours, 10”, “CO2” for “CO2 before”

[3] = molecular target: Ba/F3-FGFR4-transfected cells (Homo sapiens, UniProt P22455); experiment: Ba/F3-FGFR4 cellular proliferation assay, Alamar Blue; format: cell-based
Ba/F3-FGFR4-transfected cells, sequence (P22455 whole entry, change not shown): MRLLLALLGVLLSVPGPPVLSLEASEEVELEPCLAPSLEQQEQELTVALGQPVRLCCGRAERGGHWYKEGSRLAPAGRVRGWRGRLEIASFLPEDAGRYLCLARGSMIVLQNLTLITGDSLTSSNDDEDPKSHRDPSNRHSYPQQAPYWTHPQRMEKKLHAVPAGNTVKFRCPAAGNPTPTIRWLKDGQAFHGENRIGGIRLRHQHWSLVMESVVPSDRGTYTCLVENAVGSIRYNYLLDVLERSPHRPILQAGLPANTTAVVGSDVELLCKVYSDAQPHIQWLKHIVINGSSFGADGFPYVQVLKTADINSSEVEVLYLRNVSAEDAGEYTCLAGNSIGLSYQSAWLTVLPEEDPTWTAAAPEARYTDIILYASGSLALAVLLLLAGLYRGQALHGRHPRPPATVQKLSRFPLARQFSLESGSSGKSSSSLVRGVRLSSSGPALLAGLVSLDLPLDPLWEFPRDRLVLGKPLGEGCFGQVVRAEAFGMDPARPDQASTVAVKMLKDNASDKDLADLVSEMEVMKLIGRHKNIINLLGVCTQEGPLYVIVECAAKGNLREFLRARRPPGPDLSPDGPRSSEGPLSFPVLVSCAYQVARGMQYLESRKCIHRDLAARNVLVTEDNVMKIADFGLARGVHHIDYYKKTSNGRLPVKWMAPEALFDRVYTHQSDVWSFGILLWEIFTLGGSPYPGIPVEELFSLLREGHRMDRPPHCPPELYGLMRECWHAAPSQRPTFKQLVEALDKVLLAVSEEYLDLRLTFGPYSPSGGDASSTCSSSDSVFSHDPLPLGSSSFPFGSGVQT
Method: Ba/F3-FGFR4 (Cellular Proliferation Assay)
as §2, with “Ba/F3-FGFR4-transfected” for “Ba/F3-FGFR3-transfected”

[4] = plus 10 ng/ml murine IL3, 384 well, read-out: BAF3-FGFR 3 (PLUS IL3) 384 well pIC50 (converted)

FGFR1 (h), sequence (P11362 22-822): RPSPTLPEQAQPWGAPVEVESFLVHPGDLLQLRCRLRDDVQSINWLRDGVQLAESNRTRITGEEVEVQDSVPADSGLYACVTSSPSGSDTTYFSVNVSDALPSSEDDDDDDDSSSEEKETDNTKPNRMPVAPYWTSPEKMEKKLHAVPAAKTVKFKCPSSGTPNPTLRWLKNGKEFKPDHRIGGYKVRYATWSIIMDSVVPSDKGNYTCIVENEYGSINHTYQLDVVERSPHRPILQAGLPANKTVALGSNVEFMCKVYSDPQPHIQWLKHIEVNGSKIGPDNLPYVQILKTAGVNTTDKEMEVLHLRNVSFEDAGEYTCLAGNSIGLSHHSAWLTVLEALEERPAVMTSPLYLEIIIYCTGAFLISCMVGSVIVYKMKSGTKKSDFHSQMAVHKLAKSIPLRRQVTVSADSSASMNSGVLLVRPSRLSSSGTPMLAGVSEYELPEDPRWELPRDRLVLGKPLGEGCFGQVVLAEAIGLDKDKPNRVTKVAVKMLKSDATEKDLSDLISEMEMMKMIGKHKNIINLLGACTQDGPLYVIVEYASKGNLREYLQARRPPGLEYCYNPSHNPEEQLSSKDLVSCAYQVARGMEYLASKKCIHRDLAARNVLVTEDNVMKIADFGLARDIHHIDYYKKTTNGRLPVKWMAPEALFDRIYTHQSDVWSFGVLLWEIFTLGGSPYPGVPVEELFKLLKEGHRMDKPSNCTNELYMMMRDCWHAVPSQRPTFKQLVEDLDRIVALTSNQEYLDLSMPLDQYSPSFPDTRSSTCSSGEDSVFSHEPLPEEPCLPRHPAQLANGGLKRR

IC50 (FGFR1 (h))	IC50 (FGFR2 (h))	IC50 (FGFR3 (h))	BAF3-FGFR4 pIC50 [3]	melting point	BAF3-FGFR4 pIC50 ([3]; 384 well)	Compound	IC50 [1, 4]	IC50 [2]	BAF3-FGFR 3 (PLUS IL3) 384 well pIC50 ([1]; plus 10 ng/ml murine IL3, 384 well)	BAF3-KDR (PLUS IL3) 384 well pIC50 [2]	IC50 ([1]; plus IL3, 96 well, read-out: BAF3-FGFR 3 (PLUS IL3) 96 well pIC50 (converted))
0.955 nM	3.72 nM	3.24 nM	6.9	135 °C	–	COc1cc(OC)cc(N(CCNC(C)C)c2ccc3ncc(-c4ccc(N5CCOCC5)nc4)nc3c2)c1 [Compound 168]	~9330 nM	7080 nM	–	–	–
11.7 nM	20 nM	5.75 nM	5.6	–	–	COCC(CN(c1cc(OC)cc(OC)c1)c1ccc2ncc(-c3cccnc3)nc2c1)OC(C)=O (single isomer, unassigned) [Compound 76]	–	–	<5	<5	–
7.41 nM	15.8 nM	7.94 nM	<5	160 °C	–	COc1cc(OC)cc(N(CCO)c2ccc3ncc(-c4ccc(N5CCN(C)CC5)nc4)nc3c2)c1 [Compound 163]	> 10000 nM	7590 nM	–	–	–
44.7 nM	36.3 nM	16.2 nM	5.57	–	–	COc1cc(OC)cc(N(CCCO)c2ccc3ncc(-c4ccnc(C(=O)NCCOCCO)c4)nc3c2)c1 [Compound 186]	> 10000 nM	> 10000 nM	–	–	–
229 nM	302 nM	263 nM	5.2	–	–	COc1cc(OC)cc(N(CCNC(C)C)c2ccc3ncc(C(=O)N4CCCCC4)nc3c2)c1 [Compound 180]	> 10000 nM	> 10000 nM	–	–	–
0.813 nM	3.98 nM	6.17 nM	6.2	–	–	COc1cc(OC)cc(N(CCNC(C)C)c2ccc3ncc(-c4ccc(N5CCN(C)CC5)nc4)nc3c2)c1 [Compound 170]	9770 nM	> 10000 nM	–	–	–
31.6 nM	66.1 nM	155 nM	~5.5	–	–	COc1cc(OC)cc(N(CCNC(C)C)c2ccc3ncc(C(=O)NCCCN4CCN(C)CC4)nc3c2)c1 [Compound 159]	> 10000 nM	> 10000 nM	–	–	–
398 nM	661 nM	537 nM	5.1	–	–	COc1cc(OC)cc(N(CCCNCC(F)(F)F)c2ccc3ncc(C(=O)NCCN4CCOCC4)nc3c2)c1 [Compound 158]	> 10000 nM	> 10000 nM	–	–	–
31.6 nM	39.8 nM	11.5 nM	<5	–	–	COc1cc(OC)cc(N(CCO)c2ccc3ncc(-c4ccnc(C(=O)NCCCCCO)c4)nc3c2)c1 [Compound 139]	> 10000 nM	> 10000 nM	–	–	–
2.24 nM	9.12 nM	12 nM	6.9	–	–	COc1cc(OC)cc(N(CCNC(C)C)c2ccc3ncc(-n4cnc(CO)c4)nc3c2)c1 [Compound 77]	> 10000 nM	> 10000 nM	–	–	–
295 nM	490 nM	501 nM	<5	–	–	COc1cc(OC)cc(N(CCNC(C)C)c2ccc3ncc(C(=O)N4CCOCC4)nc3c2)c1 [Compound 181]	> 10000 nM	> 10000 nM	–	–	–
5.89 nM	14.1 nM	44.7 nM	<5	–	–	COc1cc(OC)cc(N(CCNC(C)C)c2ccc3ncc(NCC4CCNCC4)nc3c2)c1 [Compound 161]	> 10000 nM	> 10000 nM	–	–	–
107 nM	145 nM	87.1 nM	5.1	–	–	COC(=O)C1CCCN1c1cnc2ccc(N(CCO)c3cc(OC)cc(OC)c3)cc2n1 (stereo not drawn) [Compound 172]	> 10000 nM	> 10000 nM	–	–	–
316 nM	214 nM	110 nM	<5	–	–	COc1cc(OC)cc(N(CCO)c2ccc3ncc(C4CCN(C(=O)OC(C)(C)C)CC4)nc3c2)c1 [Compound 185]	> 10000 nM	> 10000 nM	–	–	–
42.7 nM	57.5 nM	91.2 nM	5.8	–	–	COc1cc(OC)cc(N(CCNC(C)C)c2ccc3ncc(C(=O)NCCN4CCOCC4)nc3c2)c1 [Compound 160]	> 10000 nM	> 10000 nM	–	–	–
2.82 nM	2.29 nM	6.17 nM	6.23	–	–	COc1cc(OC)cc(N(CCNC(C)C)c2ccc3ncc(-c4ccn[nH]4)nc3c2)c1 [Compound 189]	> 10000 nM	> 10000 nM	–	–	–
204 nM	427 nM	380 nM	<5	–	–	COc1cc(OC)cc(N(CCNC(C)C)c2ccc3ncc(C(=O)N4CCN(C)CC4)nc3c2)c1 [Compound 179]	> 10000 nM	> 10000 nM	–	–	–
437 nM	331 nM	191 nM	–	92 °C	<5	COc1cc(OC)cc(N(CC2CC2)c2ccc3ncc(N4CCN(C)CC4)nc3c2)c1 [Compound 64]	–	–	–	–	–
589 nM	676 nM	282 nM	–	162 °C	–	COc1cc(OC)cc(N(CC2CC2)c2ccc3ncc(-c4ccnc(N5CCOCC5)c4)nc3c2)c1 [Compound 90]	–	–	–	–	> 10000 nM
3.31 nM	6.31 nM	16.6 nM	6.2	–	–	COc1cc(OC)cc(N(CCNC(C)C)c2ccc3ncc(N4CCC(CN)CC4)nc3c2)c1 [Compound 67]	> 10000 nM	> 10000 nM	–	–	–
